Here are results for 20 compounds from patent US20260217711A1, “TRIAZOLOPYRIDINYL ETHER LINKED COMPOUNDS AS KINASE INHIBITORS” (Bristol-Myers Squibb Company, priority 2023, published 2026).

As usually defined, the IC50 is the midpoint of a concentration-inhibition curve.

The experiment deals with MLKL phosphorylation (pMLKL) in HT29-L23 cells. The experiment in a line: MLKL Phosphorylation High-Content Assay. Type of experiment: cell-based. The following applies: necroptosis induced with human TNFα, SMAC mimetic and Z-VAD, 6 h, read-out: LE pMLKL HC IC50. The method in brief:
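HT29-L23 cells incubated 6 h at 37° C before detection of phospho-MLKL by immunostaining with anti-phospho-MLKL antibody (1:1000 in PBS/0.1% BSA, overnight at 4° C). Readout by high-content imaging with compartmental image analysis.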
As to `Nc1nc2cc(-c3ccc(F)c(OCCC(F)C(O)c4ccc(F)cc4)c3F)ccn2n1` (single isomer, unassigned) [Example 103, 4-(3-(2-amino-[1,2,4]triazolo-[1,5-a]pyridin-7-yl)-2,6-difluorophenoxy)-2-fluoro-1-(4-fluorophenyl)butan-1-ol], the IC50 came out at 0.0015 µM.

As for `Nc1nc2cc(-c3ccc(F)c(OCCC(F)C(O)c4ccc(F)cc4)c3F)ccn2n1` (single isomer, unassigned) [Example 104, 4-(3-(2-amino-[1,2,4]triazolo-[1,5-a]pyridin-7-yl)-2,6-difluorophenoxy)-2-fluoro-1-(4-fluorophenyl)butan-1-ol], the 50% inhibitory concentration (IC50) stood at 0.0028 µM. On to `Nc1nc2cc(-c3ccc(F)c(OCCC(F)C(O)c4ccc(F)cc4)c3F)ccn2n1` (single isomer, unassigned) [Example 105, 4-(3-(2-amino-[1,2,4]triazolo-[1,5-a]pyridin-7-yl)-2,6-difluorophenoxy)-2-fluoro-1-(4-fluorophenyl)butan-1-ol], for which the IC50 amounted to 0.012 µM. Consider `Cc1ccc(-c2ccn3nc(N)nc3c2)c(F)c1OCCC(F)C(O)c1ccc(F)cc1` (single isomer, unassigned) [Example 106, 4-(3-(2-amino-[1,2,4]triazolo[1,5-a]pyridin-7-yl)-2-fluoro-6-methylphenoxy)-2-fluoro-1-(4-fluorophenyl)butan-1-ol], for which the IC50 turned out to be 0.003 µM. Take `Cc1ccc(-c2ccn3nc(N)nc3c2)c(F)c1OCCC(F)C(O)c1ccc(F)cc1` (single isomer, unassigned) [Example 107, 4-(3-(2-amino-[1,2,4]triazolo[1,5-a]pyridin-7-yl)-2-fluoro-6-methylphenoxy)-2-fluoro-1-(4-fluorophenyl)butan-1-ol]: the IC50 is 0.0012 µM. With `Cc1ccc(-c2ccn3nc(N)nc3c2)c(F)c1OCCC(F)C(O)c1ccc(F)cc1` (single isomer, unassigned) [Example 108, 4-(3-(2-amino-[1,2,4]triazolo[1,5-a]pyridin-7-yl)-2-fluoro-6-methylphenoxy)-2-fluoro-1-(4-fluorophenyl)butan-1-ol] the figure was 0.0024 µM. In the case of `Cc1ccc(-c2ccn3nc(N)nc3c2)c(F)c1OCCC(F)C(O)c1ccc(F)cc1` (single isomer, unassigned) [Example 109, 4-(3-(2-amino-[1,2,4]triazolo[1,5-a]pyridin-7-yl)-2-fluoro-6-methylphenoxy)-2-fluoro-1-(4-fluorophenyl)butan-1-ol], the IC50 worked out at 0.0001 µM.

In the case of `Nc1nc2cc(-c3ccc(C(F)(F)F)c(OCCC(F)C(O)c4ccc(F)cc4)c3F)ccn2n1` (single isomer, unassigned) [Example 110, 4-(3-(2-amino-[1,2,4]triazolo[1,5-a]pyridin-7-yl)-2-fluoro-6-(trifluoromethyl)phenoxy)-2-fluoro-1-(4-fluorophenyl)butan-1-ol], the IC50 came to 0.36 µM. For the compound `Nc1nc2cc(-c3ccc(C(F)(F)F)c(OCCC(F)C(O)c4ccc(F)cc4)c3F)ccn2n1` (single isomer, unassigned) [Example 111, 4-(3-(2-amino-[1,2,4]triazolo[1,5-a]pyridin-7-yl)-2-fluoro-6-(trifluoromethyl)phenoxy)-2-fluoro-1-(4-fluorophenyl)butan-1-ol], the IC50 came to 0.029 µM. The value for `Nc1nc2cc(-c3ccc(C(F)(F)F)c(OCCC(F)C(O)c4ccc(F)cc4)c3F)ccn2n1` (single isomer, unassigned) [Example 112, 4-(3-(2-amino-[1,2,4]triazolo[1,5-a]pyridin-7-yl)-2-fluoro-6-(trifluoromethyl)phenoxy)-2-fluoro-1-(4-fluorophenyl)butan-1-ol] was 0.73 µM; that for `Nc1nc2cc(-c3ccc(C(F)(F)F)c(OCCC(F)C(O)c4ccc(F)cc4)c3F)ccn2n1` (single isomer, unassigned) [Example 113, 4-(3-(2-amino-[1,2,4]triazolo[1,5-a]pyridin-7-yl)-2-fluoro-6-(trifluoromethyl)phenoxy)-2-fluoro-1-(4-fluorophenyl)butan-1-ol] was 0.22 µM. On to `Cc1ccc(-c2ccn3nc(N)nc3c2)c(F)c1OCCC(F)C(C)(O)c1ccc(F)cc1` (single isomer, unassigned) [Example 114, 5-(3-(2-amino-[1,2,4]triazolo[1,5-a]pyridin-7-yl)-2-fluoro-6-methylphenoxy)-3-fluoro-2-(4-fluorophenyl)pentan-2-ol], for which the IC50 was 0.0001 µM. For the compound `Cc1ccc(-c2ccn3nc(N)nc3c2)c(F)c1OCCC(F)C(C)(O)c1ccc(F)cc1` (single isomer, unassigned) [Example 115, 5-(3-(2-amino-[1,2,4]triazolo[1,5-a]pyridin-7-yl)-2-fluoro-6-methylphenoxy)-3-fluoro-2-(4-fluorophenyl)pentan-2-ol], the IC50 came to 0.0026 µM. Regarding `Nc1nc2cc(-c3cc(F)c(F)c(OCCC(F)C(O)c4ccc(F)cc4)c3)ccn2n1` (single isomer, unassigned) [Example 116, 4-(5-(2-amino-[1,2,4]triazolo[1,5-a]pyridin-7-yl)-2,3-difluorophenoxy)-2-fluoro-1-(4-fluorophenyl)butan-1-ol], the IC50 is 0.055 µM. Consider `Nc1nc2cc(-c3cc(F)c(F)c(OCCC(F)C(O)c4ccc(F)cc4)c3)ccn2n1` (single isomer, unassigned) [Example 117, 4-(5-(2-amino-[1,2,4]triazolo[1,5-a]pyridin-7-yl)-2,3-difluorophenoxy)-2-fluoro-1-(4-fluorophenyl)butan-1-ol], for which the IC50 came out at 0.58 µM. For the compound `Nc1nc2cc(-c3cc(F)c(F)c(OCCC(F)C(O)c4ccc(F)cc4)c3)ccn2n1` (single isomer, unassigned) [Example 118, 4-(5-(2-amino-[1,2,4]triazolo[1,5-a]pyridin-7-yl)-2,3-difluorophenoxy)-2-fluoro-1-(4-fluorophenyl)butan-1-ol], the IC50 was found to be 1.04 µM. Consider `Nc1nc2cc(-c3cc(F)c(F)c(OCCC(F)C(O)c4ccc(F)cc4)c3)ccn2n1` (single isomer, unassigned) [Example 119, 4-(5-(2-amino-[1,2,4]triazolo[1,5-a]pyridin-7-yl)-2,3-difluorophenoxy)-2-fluoro-1-(4-fluorophenyl)butan-1-ol], for which the IC50 is 0.58 µM.

`Cc1ccc(-c2ccn3nc(N)nc3c2)c(F)c1OCCC(F)C(F)(F)c1ccc(F)cc1` (single isomer, unassigned) [Example 120, 7-(2-fluoro-4-methyl-3-(3,4,4-trifluoro-4-(4-fluorophenyl)butoxy)phenyl)-[1,2,4]triazolo[1,5-a]pyridin-2-amine]: the IC50 came out at 0.0096 µM.

Regarding `Cc1ccc(-c2ccn3nc(N)nc3c2)c(F)c1OCCC(F)C(F)(F)c1ccc(F)cc1` (single isomer, unassigned) [Example 121, 7-(2-fluoro-4-methyl-3-(3,4,4-trifluoro-4-(4-fluorophenyl)butoxy)phenyl)-[1,2,4]triazolo[1,5-a]pyridin-2-amine], the IC50 amounted to 0.089 µM. `CC(O)(c1cccc(F)c1)C(F)(F)CCOc1c(F)ccc(-c2ccn3nc(N)nc3c2)c1F` (single isomer, unassigned) [Example 122, 5-(3-(2-amino-[1,2,4]triazolo[1,5-a]pyridin-7-yl)-2,6-difluorophenoxy)-3,3-difluoro-2-(3-fluorophenyl)pentan-2-ol]: the IC50 amounted to 0.13 µM.
